According to publication PMC5343510 (Molecular pharmaceutics, 2016):

Tests used:
[1] = system: KB tumor xenografts (FR+); assay: Ex vivo biodistribution in nude mice bearing KB tumor xenografts; settings: 120 min p.i., ± SEM
[2] = molecular target: FR (folate receptor) on KB cells (Homo sapiens, UniProt P15328); assay: Relative binding affinity: inhibition of 3H-folate binding to cultured KB cells; settings: read-out: mean IC50 (relative binding affinity, block of 3H-folic acid binding), 10 nM 3H-folate, 1 h, 37 °C
FR (folate receptor) on KB cells, sequence (P15328 25-257): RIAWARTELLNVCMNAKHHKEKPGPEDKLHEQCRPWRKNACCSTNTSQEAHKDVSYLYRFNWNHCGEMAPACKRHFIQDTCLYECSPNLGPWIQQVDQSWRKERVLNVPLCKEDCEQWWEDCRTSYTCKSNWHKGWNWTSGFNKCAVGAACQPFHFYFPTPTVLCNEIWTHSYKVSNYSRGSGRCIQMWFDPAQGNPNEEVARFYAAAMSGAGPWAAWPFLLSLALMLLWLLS

Q: Which “Biodistribution: Blood” value ([1]; Control) does the source give for `[NH-][C@@H](CNC(=O)CC[C@@H](NC(=O)c1ccc(NCc2cnc3nc(N)[nH]c(=O)c3n2)cc1)C(=O)O)C(=O)[N-][C@@H](CC(=O)O)C(=O)[N-][C@@H](C[S-])C(=O)O.[O]=[Tc+4]` [^99mTc-EC20] here?
A: 0.3 ± 0.01 %ID/g

Q: What about the “Biodistribution: Heart” value ([1]; Control) of the same compound?
A: 1.9 ± 0.1 %ID/g

Q: What about the “Biodistribution: KB Tumor” value ([1]; Control) of the same compound?
A: 10.9 ± 0.6 %ID/g

Q: What about the “Biodistribution: Kidney” value ([1]; Control) of the same compound?
A: 113.0 ± 3.6 %ID/g

Q: And the “Biodistribution: Liver” value ([1]; Control)?
A: 4.1 ± 0.3 %ID/g

Q: What about the “Biodistribution: Lung” value ([1]; Control) of the same compound?
A: 2.1 ± 0.1 %ID/g

Q: What about the “Biodistribution: Muscle” value ([1]; Control) of the same compound?
A: 1.2 ± 0.04 %ID/g

Q: And the “Biodistribution: Plasma” value ([1]; Control)?
A: 0.5 ± 0.03 %ID/g

Q: And the “Biodistribution: Spleen” value ([1]; Control)?
A: 0.8 ± 0.1 %ID/g

Q: And the “KB Tumor/Blood ratio” value ([1]; Control)?
A: 41.5 ± 2.2

Q: What about the “KB Tumor/Kidney ratio” value ([1]; Control) of the same compound?
A: 0.1 ± 0.01

Q: What about the “KB Tumor/Liver ratio” value ([1]; Control) of the same compound?
A: 3.1 ± 0.3

Q: And the “Biodistribution: Blood” value ([1]; FA Block (100 μg folic acid))?
A: 0.3 ± 0.1 %ID/g

Q: And the “Biodistribution: Heart” value ([1]; FA Block (100 μg folic acid))?
A: 0.1 ± 0.02 %ID/g

Q: And the “Biodistribution: KB Tumor” value ([1]; FA Block (100 μg folic acid))?
A: 0.9 ± 0.1 %ID/g

Q: And the “Biodistribution: Kidney” value ([1]; FA Block (100 μg folic acid))?
A: 6.7 ± 1.6 %ID/g

Q: And the “Biodistribution: Liver” value ([1]; FA Block (100 μg folic acid))?
A: 2.5 ± 0.5 %ID/g

Q: And the “Biodistribution: Lung” value ([1]; FA Block (100 μg folic acid))?
A: 0.8 ± 0.2 %ID/g

Q: What about the “Biodistribution: Muscle” value ([1]; FA Block (100 μg folic acid)) of the same compound?
A: 0.1 ± 0.02 %ID/g

Q: What about the “Biodistribution: Plasma” value ([1]; FA Block (100 μg folic acid)) of the same compound?
A: 0.5 ± 0.1 %ID/g

Q: What about the “Biodistribution: Spleen” value ([1]; FA Block (100 μg folic acid)) of the same compound?
A: 0.5 ± 0.2 %ID/g

Q: What about the “KB Tumor/Blood ratio” value ([1]; FA Block (100 μg folic acid)) of the same compound?
A: 2.9 ± 0.4

Q: What about the “KB Tumor/Kidney ratio” value ([1]; FA Block (100 μg folic acid)) of the same compound?
A: 0.1 ± 0.02

Q: And the “KB Tumor/Liver ratio” value ([1]; FA Block (100 μg folic acid))?
A: 0.4 ± 0.1

Q: How did the IC50 [2] turn out when `Nc1nc2ncc(CNc3ccc(C(=O)N[C@@H](CCC(=O)NCCOCCOCCNC(=O)CN4CCN(CC(=O)O)CCN(CC(=O)O)CC4)C(=O)O)cc3)nc2c(=O)[nH]1` [folate-NOTA] was run?
A: 18.7 nM
